# Laboratory results taken from article PMC7129073 (Clinical Microbiology and Infection, 2015).
# Tests used:
# H.influenzae = assay: Broth microdilution; format: cell-based, Haemophilus influenzae
# [1] = test system: Streptococcus pyogenes (SPY); assay: MIC; format: cell-based; conditions: 2522 isolates
# Staph. coaq (−) = assay: Sensitivity of CAP pathogens with/without antibiotic pretreatment; format: cell-based, coagulase-negative Staphylococcus
# [2] = test system: Other non-fermenting bacteria; assay: as above; format: cell-based
# Enterococcus sp = assay: as above; format: cell-based
# Kl. pneumoniae = assay: as above; format: cell-based, Klebsiella pneumoniae
# S. aureus = assay: as above; format: cell-based, Staphylococcus aureus; conditions: after pretreatment, Abs. 4
# H. influenzae = assay: as above; format: cell-based, Haemophilus influenzae
# ERSP = assay: Broth microdilution; format: cell-based, Streptococcus pneumoniae
# N.gonorrhoeae = assay: microbe, parasite or virus in culture; format: cell-based; conditions: Neisseria gonorrhoeae
# Other Enterobacteriacae = assay: Sensitivity of CAP pathogens with/without antibiotic pretreatment; format: cell-based, Enterobacteriaceae
# S. pyogenes = assay: as above; format: cell-based, Streptococcus pyogenes; conditions: Abs. 4
# PRSP = assay: Broth microdilution; format: cell-based, Streptococcus pneumoniae
# S. pneumoniae [3] = assay: Broth microdilution; format: cell-based, Streptococcus pneumoniae
# [4] = test system: Total pathogens in community acquired pneumonia; assay: Sensitivity of CAP pathogens with/without antibiotic pretreatment; format: cell-based; conditions: after pretreatment, Abs. 48
# Other Haemophilus sp. = assay: as above; format: cell-based; conditions: after pretreatment, Abs. 11
# E. coli = assay: as above; format: cell-based, Escherichia coli
# P. jirovecii = P. jirovecii colonisation; format: in vivo, human; conditions: none developed PcP in one year
# [5] = test system: pathogens in community acquired pneumonia of different severity; assay: Sensitivity of CAP pathogens by Fine severity group; format: cell-based
# S. -pneumoniae = assay: Sensitivity of CAP pathogens with/without antibiotic pretreatment; format: cell-based, Streptococcus pneumoniae
# S. pneumoniae [6] = assay: E-test MIC, children with URTI, Brazil; format: cell-based, Streptococcus pneumoniae
# [7] = test system: Moraxella catarrhalis (MC); assay: MIC; format: cell-based; conditions: 2497 isolates
# P. aeruginosa = assay: Sensitivity of CAP pathogens with/without antibiotic pretreatment; format: cell-based, Pseudomonas aeruginosa; conditions: Abs. 3
# [8] = NCCLS breakpoints (Amox/Clav 2/1 mcg/mL)
smiles,measurement,setting,value
CC[C@H]1OC(=O)[C@H](C)[C@@H](O[C@H]2C[C@@](C)(OC)[C@@H](O)[C@H](C)O2)[C@H](C)[C@@H](O[C@@H]2O[C@H](C)C[C@H](N(C)C)[C@H]2O)[C@](C)(O)C[C@@H](C)CN(C)[C@H](C)[C@@H](O)[C@]1(C)O [azithromycin],MIC90,H.influenzae; Haemophilus influenzae,2 µg/mL
same,%Sus,H.influenzae; NCCLS,99.1%
same,MIC90,[1],0.5 ig/ml
same,% of sensitive strains,"Staph. coaq (−); after pretreatment, Abs. 2",50.0%
same,% of sensitive strains,"Staph. coaq (−); without pretreatment, Abs. 4",75.0%
same,% of sensitive strains,"[2]; after pretreatment, Abs. 0",0.0%
same,% of sensitive strains,"[2]; without pretreatment, Abs. 1","0,0%"
same,% of sensitive strains,"Enterococcus sp; after pretreatment, Abs. 0",0.0%
same,% of sensitive strains,"Enterococcus sp; without pretreatment, Abs. 1","0,0%"
same,% of sensitive strains,"Kl. pneumoniae; after pretreatment, Abs. 5",0.0%
same,% of sensitive strains,"Kl. pneumoniae; without pretreatment, Abs. 4","0,0%"
same,% of sensitive strains,S. aureus,75.0%
same,% of sensitive strains,"H. influenzae; after pretreatment, Abs. 10",100.0%
same,% of sensitive strains,"H. influenzae; without pretreatment, Abs. 26",100.0%
same,%Sus,ERSP; [8],0.3%
same,MIC90,ERSP; Streptococcus pneumoniae,> 32 µg/mL
same,MIC,N.gonorrhoeae; strain 76mu6,0.25 µg/mL
same,MIC,N.gonorrhoeae; strain 76mu10,0.25 µg/mL
same,% of sensitive strains,"Other Enterobacteriacae; after pretreatment, Abs. 5",0.0%
same,% of sensitive strains,"Other Enterobacteriacae; without pretreatment, Abs. 2","0,0%"
same,% of sensitive strains,S. pyogenes; after pretreatment,100.0%
same,% of sensitive strains,S. pyogenes; without pretreatment,"100,0%"
same,%Sus,PRSP; [8],23.0%
same,MIC90,"PRSP; Streptococcus pneumoniae, PRSP",> 32 µg/mL
same,%Sus,S. pneumoniae [3]; [8],71.4%
same,MIC90,S. pneumoniae [3]; Streptococcus pneumoniae,> 32 µg/mL
same,% of sensitive strains,[4],66.7%
same,% of sensitive strains,Other Haemophilus sp.,100.0%
same,% of sensitive strains,"E. coli; after pretreatment, Abs. 1",0.0%
same,% of sensitive strains,"E. coli; without pretreatment, Abs. 5","0,0%"
same,patients receiving prophylaxis who were colonized,P. jirovecii,17.2%
same,"sensitivity, total strains",[5]; higher severity group (Fine scores >70),60.0%
same,"sensitivity, total strains",[5]; lower severity group (Fine scores <70),73.6%
same,% of sensitive strains,"S. -pneumoniae; after antibiotic pretreatment, Abs. 3",100.0%
same,% of sensitive strains,"S. -pneumoniae; without antibiotic pretreatment, Abs. 13","100,0%"
same,intermediate (I),S. pneumoniae [6]; 137 isolates,1.5%
same,resistant (R),S. pneumoniae [6]; 137 isolates,8%
same,susceptible (S),S. pneumoniae [6]; 137 isolates,90.5%
same,MIC90,S. pneumoniae [6]; Streptococcus pneumoniae,4 µg/mL
same,MIC90,[7],0.25 ig/ml
same,% of sensitive strains,P. aeruginosa; after pretreatment,0.0%
same,% of sensitive strains,P. aeruginosa; without pretreatment,"0,0%"
